Test results reported in patent publication US20230398234A1, “NOVEL FUNGAL COMPOIND FORMULATIONS AND THEIR THERAPEUTIC METHODS OF USE” (priority 2020, published 2023).

Details: UPLC quantification of cordycepin; variable mass ratios; FIG. 2

Nc1ncnc2c1ncn2[C@@H]1O[C@H](CO)C[C@H]1O [Cordycepin, 3′-deoxyadenosine]
solubility of Cordycepin in Cordyceps extract, TPGS solution vs pure water: did not increase the solubility
